Measured values as given in ChEMBL document CHEMBL1201862, “PubChem BioAssay data set” (2004).
Active and inactive are the calls of the source.

Experiments:
[1] = target: T1, RNA-binding protein pos-1 (Caenorhabditis elegans, UniProt G5EF15); assay: disruptors of C. elegans POS-1 RNA interaction – biochemical, fluorescence polarization, dose response (AID 1964);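 further: purified POS-1 fused to maltose binding protein made in E. coli; potency of compounds blocking POS-1 binding to fluorescent RNA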
T1 sequence (G5EF15 whole entry): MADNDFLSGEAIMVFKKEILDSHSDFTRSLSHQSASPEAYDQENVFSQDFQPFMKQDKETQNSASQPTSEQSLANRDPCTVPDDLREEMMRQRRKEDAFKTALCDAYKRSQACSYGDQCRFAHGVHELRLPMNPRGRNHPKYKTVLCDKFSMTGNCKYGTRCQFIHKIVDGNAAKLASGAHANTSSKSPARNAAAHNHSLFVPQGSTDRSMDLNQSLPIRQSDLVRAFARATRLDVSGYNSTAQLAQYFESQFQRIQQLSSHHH

[2] = target: T2, Zinc finger protein mex-5 (Caenorhabditis elegans, UniProt Q9XUB2); assay: potency of MEX-5 RNA-binding blockers – biochemical, C. elegans, fluorescence polarization, dose response (AID 1960)
T2 sequence (Q9XUB2 whole entry): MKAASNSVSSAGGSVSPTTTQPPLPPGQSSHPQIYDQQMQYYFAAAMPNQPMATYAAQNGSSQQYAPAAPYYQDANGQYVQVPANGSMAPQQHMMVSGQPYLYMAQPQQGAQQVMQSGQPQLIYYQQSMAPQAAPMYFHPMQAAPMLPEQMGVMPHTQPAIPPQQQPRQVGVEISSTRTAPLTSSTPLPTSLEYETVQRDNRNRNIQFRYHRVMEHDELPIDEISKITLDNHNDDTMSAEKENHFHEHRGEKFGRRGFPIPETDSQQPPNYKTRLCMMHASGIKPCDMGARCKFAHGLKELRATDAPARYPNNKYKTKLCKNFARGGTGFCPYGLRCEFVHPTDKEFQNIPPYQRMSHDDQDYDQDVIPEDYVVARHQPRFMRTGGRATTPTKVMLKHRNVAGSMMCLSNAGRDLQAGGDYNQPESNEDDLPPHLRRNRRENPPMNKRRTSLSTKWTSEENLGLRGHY

[3] = HPDE-C7 pancreatic duct cell viability loss – fluorescence, HTS (AID 430); format: functional, cell-based; conditions: Homo sapiens
[4] = viability loss of HPDE-C7K cells – cell-based, fluorescence, HTS, primary screen (AID 431); format: functional; conditions: Homo sapiens
[5] = target: NAD-dependent protein deacylase sirtuin-5, mitochondrial (Homo sapiens, UniProt Q9NXA8); assay: sirtuin-5 deacylation blockers, concentration series – biochemical, fluorescence imaging, cherry-pick, set 5, dose response (AID 720591);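 further: desuccinylation of succinyl peptide AMC substrate read as fluorescence after trypsin release; potency of inhibitors that lower fluorescence and may act on trypsin instead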
NAD-dependent protein deacylase sirtuin-5, mitochondrial, sequence (Q9NXA8 whole entry): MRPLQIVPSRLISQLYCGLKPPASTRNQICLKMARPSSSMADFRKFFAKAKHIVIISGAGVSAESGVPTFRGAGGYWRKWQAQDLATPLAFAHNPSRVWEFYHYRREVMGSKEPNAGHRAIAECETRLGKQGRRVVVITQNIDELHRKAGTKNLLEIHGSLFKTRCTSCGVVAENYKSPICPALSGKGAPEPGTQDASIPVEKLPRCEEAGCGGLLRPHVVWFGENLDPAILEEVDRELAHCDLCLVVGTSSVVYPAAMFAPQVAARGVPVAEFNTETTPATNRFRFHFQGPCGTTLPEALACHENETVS

[6] = target: T3, Eukaryotic translation initiation factor 2-alpha kinase 3 (Homo sapiens, UniProt Q9NZJ5); assay: Dose response cell-based high-throughput screening assay to measure PERK inhibition. [Related pubchem assays: 1416 ]; format: functional
T3 sequence (Q9NZJ5 whole entry): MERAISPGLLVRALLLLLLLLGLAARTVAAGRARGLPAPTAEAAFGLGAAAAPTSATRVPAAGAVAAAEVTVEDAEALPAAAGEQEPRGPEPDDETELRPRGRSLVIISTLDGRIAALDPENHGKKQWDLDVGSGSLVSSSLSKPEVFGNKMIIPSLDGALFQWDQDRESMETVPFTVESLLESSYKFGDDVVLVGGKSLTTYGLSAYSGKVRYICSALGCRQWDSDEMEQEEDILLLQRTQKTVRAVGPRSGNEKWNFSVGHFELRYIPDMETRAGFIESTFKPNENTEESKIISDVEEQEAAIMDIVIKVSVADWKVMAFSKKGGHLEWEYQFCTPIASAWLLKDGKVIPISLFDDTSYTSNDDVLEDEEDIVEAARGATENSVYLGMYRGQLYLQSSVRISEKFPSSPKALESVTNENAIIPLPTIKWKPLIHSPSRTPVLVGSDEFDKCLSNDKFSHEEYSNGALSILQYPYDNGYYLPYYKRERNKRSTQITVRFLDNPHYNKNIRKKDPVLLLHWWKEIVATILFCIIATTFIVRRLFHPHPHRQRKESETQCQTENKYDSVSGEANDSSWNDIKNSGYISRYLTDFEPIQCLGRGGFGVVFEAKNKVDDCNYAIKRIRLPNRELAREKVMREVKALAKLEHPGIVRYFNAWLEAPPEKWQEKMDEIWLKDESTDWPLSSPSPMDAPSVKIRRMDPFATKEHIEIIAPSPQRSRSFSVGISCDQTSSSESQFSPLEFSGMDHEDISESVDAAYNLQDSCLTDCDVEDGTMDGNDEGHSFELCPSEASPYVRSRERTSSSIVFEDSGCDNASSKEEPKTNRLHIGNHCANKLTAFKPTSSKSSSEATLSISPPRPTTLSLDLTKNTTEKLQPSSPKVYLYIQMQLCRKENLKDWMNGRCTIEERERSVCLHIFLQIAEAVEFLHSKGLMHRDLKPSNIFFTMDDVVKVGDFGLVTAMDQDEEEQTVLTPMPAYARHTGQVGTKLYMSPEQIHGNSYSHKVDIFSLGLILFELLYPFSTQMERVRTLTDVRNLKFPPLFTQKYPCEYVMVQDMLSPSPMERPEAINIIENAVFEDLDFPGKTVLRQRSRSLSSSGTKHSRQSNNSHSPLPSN

[7] = target: T3, Eukaryotic translation initiation factor 2-alpha kinase 3; assay: Counterscreen assay for PERK inhibitors: Dose response cell-based high throughput screening assay to measure inhibition of PERK at 6 hours. [Related pubchem assays: 1522, 1416 ]; format: functional
[8] = Trypanosoma cruzi growth suppression in host cells – NIH3T3 host cells, beta-gal luminescence, confirmation (AID 2044); format: functional, cell-based;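 further: intracellular parasites grown in NIH/3T3 mouse fibroblasts as host cells; luminescent beta-galactosidase reporter signal from transgenic T. cruzi replicating inside host cells; inhibitors lower the luminescence signal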
[9] = NIH3T3 cell viability loss – ATP luminescence, mouse fibroblasts, counter-screen, dose response (AID 2010); format: functional, cell-based;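 further: cells exposed to compound for about 90 hours before reading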
[10] = target: T4, Fatty acid synthase (Homo sapiens, UniProt P49327); assay: inhibition of human FAS-TE enzyme activity – biochemical, endpoint fluorescence intensity, uHTS hits, dose response (AID 624327); format: functional;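 further: fluorescence from hydrolysis of an O-methyl fluorescein acyl ester substrate by the enzyme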
[11] = target: T4, Fatty acid synthase; assay: inhibition of human FAS-TE enzyme activity – biochemical, kinetic fluorescence intensity, dose response (AID 624326); format: functional;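 further: rate of fluorescence rise from hydrolysis of a fluorogenic O-methyl fluorescein ester substrate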
[12] = cells
[13] = target: Peroxisome proliferator-activated receptor gamma/Nuclear receptor coactivator 2 (Homo sapiens, UniProt P37231); format: functional;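 further: agonist potency for raising coactivator recruitment to the receptor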
Peroxisome proliferator-activated receptor gamma/Nuclear receptor coactivator 2, sequence (P37231 whole entry): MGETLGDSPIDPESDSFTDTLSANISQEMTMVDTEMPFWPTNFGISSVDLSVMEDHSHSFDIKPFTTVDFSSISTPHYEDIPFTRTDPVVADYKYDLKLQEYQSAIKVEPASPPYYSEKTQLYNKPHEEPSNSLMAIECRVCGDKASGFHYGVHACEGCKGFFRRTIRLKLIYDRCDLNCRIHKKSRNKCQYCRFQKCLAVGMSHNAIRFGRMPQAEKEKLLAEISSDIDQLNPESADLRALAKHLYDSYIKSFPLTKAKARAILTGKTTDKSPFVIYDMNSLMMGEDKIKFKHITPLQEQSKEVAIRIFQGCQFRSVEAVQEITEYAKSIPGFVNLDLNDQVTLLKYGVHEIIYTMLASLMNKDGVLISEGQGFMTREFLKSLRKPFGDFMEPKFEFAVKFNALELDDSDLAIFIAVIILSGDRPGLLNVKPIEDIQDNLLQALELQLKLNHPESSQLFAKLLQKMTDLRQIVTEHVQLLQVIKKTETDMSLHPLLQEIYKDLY
Peroxisome proliferator-activated receptor gamma/Nuclear receptor coactivator 2, sequence (Q15596 whole entry, further chain): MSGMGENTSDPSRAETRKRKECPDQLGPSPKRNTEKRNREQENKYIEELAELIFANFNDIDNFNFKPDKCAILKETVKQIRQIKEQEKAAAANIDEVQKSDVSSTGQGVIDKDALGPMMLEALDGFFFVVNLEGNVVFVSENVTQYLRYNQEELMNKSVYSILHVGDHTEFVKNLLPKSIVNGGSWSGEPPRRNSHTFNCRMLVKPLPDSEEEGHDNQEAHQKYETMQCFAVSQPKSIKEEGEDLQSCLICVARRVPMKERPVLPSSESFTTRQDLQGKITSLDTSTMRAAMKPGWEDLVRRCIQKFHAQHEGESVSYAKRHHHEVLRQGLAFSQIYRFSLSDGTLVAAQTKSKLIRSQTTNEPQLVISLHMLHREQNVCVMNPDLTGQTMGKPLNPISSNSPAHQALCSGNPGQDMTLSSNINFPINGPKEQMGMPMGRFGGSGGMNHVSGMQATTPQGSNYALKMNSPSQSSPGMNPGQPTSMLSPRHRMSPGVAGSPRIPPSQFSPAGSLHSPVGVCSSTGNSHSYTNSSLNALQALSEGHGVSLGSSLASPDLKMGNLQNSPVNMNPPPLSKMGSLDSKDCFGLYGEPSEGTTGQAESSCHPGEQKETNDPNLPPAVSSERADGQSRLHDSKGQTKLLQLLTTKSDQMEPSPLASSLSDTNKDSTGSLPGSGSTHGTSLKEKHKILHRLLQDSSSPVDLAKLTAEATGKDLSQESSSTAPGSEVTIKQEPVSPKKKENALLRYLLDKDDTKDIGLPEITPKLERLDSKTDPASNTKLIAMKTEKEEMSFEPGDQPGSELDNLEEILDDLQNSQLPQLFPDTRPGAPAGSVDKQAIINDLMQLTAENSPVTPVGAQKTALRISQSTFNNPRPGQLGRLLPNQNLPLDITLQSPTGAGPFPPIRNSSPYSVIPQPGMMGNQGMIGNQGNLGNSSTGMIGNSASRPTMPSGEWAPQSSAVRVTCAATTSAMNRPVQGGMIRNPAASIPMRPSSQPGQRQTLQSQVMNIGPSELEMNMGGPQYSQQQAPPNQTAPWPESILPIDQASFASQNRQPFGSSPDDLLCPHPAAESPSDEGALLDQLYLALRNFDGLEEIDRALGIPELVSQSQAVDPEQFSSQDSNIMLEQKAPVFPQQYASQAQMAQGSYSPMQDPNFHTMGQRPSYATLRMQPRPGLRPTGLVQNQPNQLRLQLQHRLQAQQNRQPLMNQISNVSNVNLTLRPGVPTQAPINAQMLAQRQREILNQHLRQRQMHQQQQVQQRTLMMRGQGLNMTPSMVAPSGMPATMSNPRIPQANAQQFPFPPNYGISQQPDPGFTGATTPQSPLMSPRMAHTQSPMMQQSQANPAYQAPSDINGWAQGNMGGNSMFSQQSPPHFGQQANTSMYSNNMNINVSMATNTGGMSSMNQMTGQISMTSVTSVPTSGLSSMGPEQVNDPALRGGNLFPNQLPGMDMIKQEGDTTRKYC

[14] = target: Peroxisome proliferator-activated receptor gamma/Nuclear receptor coactivator 1 (Homo sapiens, UniProt P37231); format: functional;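 further: agonist potency as compounds enhance coactivator SRC-1 recruitment to PPARgamma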
Peroxisome proliferator-activated receptor gamma/Nuclear receptor coactivator 1, sequence (P37231 whole entry): as the sequence (P37231 whole entry) above
Peroxisome proliferator-activated receptor gamma/Nuclear receptor coactivator 1, sequence (Q15788 whole entry, further chain): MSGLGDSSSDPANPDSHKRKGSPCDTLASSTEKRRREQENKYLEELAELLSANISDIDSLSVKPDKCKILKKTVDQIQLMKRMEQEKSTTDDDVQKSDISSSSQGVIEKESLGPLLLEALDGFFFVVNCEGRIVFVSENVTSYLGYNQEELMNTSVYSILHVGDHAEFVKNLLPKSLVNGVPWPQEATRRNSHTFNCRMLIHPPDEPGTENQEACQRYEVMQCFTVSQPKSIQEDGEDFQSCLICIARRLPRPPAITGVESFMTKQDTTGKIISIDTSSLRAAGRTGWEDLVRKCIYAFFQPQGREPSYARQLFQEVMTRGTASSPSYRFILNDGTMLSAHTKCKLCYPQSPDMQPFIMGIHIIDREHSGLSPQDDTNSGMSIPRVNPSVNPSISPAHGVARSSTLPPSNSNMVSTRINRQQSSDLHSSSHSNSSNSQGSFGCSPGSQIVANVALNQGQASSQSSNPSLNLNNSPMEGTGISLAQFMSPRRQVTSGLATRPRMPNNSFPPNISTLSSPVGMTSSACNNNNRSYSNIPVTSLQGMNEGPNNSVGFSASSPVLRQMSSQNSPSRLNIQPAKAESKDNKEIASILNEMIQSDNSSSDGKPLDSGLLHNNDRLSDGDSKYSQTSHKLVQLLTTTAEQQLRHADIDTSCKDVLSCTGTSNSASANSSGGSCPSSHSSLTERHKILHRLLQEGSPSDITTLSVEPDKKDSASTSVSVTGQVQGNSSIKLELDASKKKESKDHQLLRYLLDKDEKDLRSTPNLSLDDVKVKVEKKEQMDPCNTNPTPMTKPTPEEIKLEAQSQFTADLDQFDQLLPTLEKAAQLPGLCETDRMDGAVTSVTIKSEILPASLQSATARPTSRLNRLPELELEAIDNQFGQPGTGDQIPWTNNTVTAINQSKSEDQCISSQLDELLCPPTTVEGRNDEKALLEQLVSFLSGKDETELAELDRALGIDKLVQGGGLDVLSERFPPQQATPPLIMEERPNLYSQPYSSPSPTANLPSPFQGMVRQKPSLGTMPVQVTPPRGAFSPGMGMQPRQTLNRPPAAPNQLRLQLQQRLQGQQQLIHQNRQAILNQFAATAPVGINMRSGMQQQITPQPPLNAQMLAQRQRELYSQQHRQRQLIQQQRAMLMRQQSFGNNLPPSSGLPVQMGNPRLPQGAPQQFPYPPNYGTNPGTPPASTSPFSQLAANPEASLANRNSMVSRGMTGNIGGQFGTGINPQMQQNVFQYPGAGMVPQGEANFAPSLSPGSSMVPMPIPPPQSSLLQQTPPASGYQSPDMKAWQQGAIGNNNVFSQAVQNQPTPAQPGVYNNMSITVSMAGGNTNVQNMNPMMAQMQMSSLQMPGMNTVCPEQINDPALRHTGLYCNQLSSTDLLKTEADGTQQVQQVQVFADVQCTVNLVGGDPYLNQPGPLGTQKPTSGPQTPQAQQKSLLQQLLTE

[15] = target: Peroxisome proliferator-activated receptor gamma/Nuclear receptor coactivator 3 (Homo sapiens, UniProt P37231); format: functional;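 further: agonist potency for raising coactivator recruitment to the receptor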
[16] = test system: INS1; assay: INS-1E survival protection against cytokine death – cell-based, luminescence, retest, dose response (AID 449756); format: functional; conditions: Rattus norvegicus;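 further: cell death triggered by IL-1 beta plus TNF-alpha plus IFN-gamma mixture; protective hits raise ATP signal compared with cytokine alone wells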
[17] = Luminescence Cell-Based Dose Response to Identify Activators of 5'UTR Stem-Loop Driven Prion Protein mRNA Translation in H4-C Neuroglioblastoma Cells. [Related pubchem assays: 1829 (Project Summary), 1814 (Primary HTS)]; format: functional
[18] = Luminescence Cell-Based Dose Response HTS to Identify Activators of Luciferase Translation or Activity in H4 […] Cells. [Related pubchem assays: 1829 (Project Summary), 1814 (Primary HTS)]; format: functional
[19] = test system: H4; assay: Luminescence Cell-Based Dose Response HTS to Identify Activators of 5'UTR Stem-Loop Driven Prion Protein mRNA Translation in H4 Neuroglioblastoma Cells. [Related pubchem assays: 1829 (Project Summary), 1814 (Primary HTS)]; format: functional; conditions: Homo sapiens
[20] = Luminescence Cell-Based Dose Response to Identify Activators of Luciferase Translation or Activity in H4-C Neuroglioblastoma Cells. [Related pubchem assays: 1829 (Project Summary), 1814 (Primary HTS)]; format: functional
[21] = Luminescence Cell-Based Dose Confirmation to Identify Activators of 5'UTR Stem-Loop Driven Alpha-Synuclein mRNA Translation in H4 Neuroglioblastoma Cells. [Related pubchem assays: 1829 (Project Summary), 1814 (Primary HTS)]; format: functional
[22] = target: Albumin (Bos taurus, UniProt P02769); assay: Counterscreen for inhibitors of T-cell receptor (TCR)-CD3 interaction: Fluorescence-based biochemical high throughput dose response assay to identify inhibitors of T-cell receptor (TCR)-CD3 interaction using a TAMRA-labeled BSA probe.; format: functional
Albumin, sequence (P02769 whole entry): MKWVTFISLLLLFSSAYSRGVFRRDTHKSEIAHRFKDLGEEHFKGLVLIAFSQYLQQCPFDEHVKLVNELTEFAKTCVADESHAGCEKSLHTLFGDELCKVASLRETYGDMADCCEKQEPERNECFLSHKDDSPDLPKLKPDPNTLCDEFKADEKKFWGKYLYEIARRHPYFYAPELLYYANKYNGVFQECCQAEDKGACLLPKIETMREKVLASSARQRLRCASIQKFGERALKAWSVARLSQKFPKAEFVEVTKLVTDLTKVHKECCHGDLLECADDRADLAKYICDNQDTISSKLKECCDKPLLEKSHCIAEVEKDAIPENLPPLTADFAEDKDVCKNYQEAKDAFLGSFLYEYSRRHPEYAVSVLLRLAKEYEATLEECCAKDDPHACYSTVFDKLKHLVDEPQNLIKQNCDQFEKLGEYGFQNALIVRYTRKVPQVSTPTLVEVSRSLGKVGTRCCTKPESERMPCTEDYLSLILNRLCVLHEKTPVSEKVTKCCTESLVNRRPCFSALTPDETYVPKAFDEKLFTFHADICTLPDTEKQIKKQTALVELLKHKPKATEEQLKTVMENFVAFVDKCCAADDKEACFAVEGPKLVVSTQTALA

[23] = Luminescence Cell-Based Dose Confirmation HTS to Identify Activators of 5'UTR Stem-Loop Driven Alpha-Synuclein mRNA Translation in H4 Neuroglioblastoma Cells. [Related pubchem assays: 1829 (Project Summary), 1814 (Primary HTS)]; format: functional
[24] = test system: HeLa; assay: ATP-based viability loss in HeLa cells – cell-based, CellTiter-Glo luminescence, cherry-pick samples, cytotoxicity control for MITF activator project, dose response (AID 540259); format: functional; conditions: Homo sapiens
[25] = NIH-3T3 fibroblast cytotoxicity, dose response, cytotoxicity control, cell-based, fluorescence, Alamar Blue, secondary assay (AID 2327); format: functional;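 further: NIH-3T3 mouse fibroblasts cultured with fluconazole at 8 µg/mL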
[26] = fluconazole-exposed Candida albicans growth modulators – fluorescence, retest, confirmation (AID 2467); format: functional, cell-based
[27] = target: T5, DNA repair protein RAD52 homolog (Homo sapiens, UniProt P43351); format: functional, biochemical
T5 sequence (P43351 whole entry): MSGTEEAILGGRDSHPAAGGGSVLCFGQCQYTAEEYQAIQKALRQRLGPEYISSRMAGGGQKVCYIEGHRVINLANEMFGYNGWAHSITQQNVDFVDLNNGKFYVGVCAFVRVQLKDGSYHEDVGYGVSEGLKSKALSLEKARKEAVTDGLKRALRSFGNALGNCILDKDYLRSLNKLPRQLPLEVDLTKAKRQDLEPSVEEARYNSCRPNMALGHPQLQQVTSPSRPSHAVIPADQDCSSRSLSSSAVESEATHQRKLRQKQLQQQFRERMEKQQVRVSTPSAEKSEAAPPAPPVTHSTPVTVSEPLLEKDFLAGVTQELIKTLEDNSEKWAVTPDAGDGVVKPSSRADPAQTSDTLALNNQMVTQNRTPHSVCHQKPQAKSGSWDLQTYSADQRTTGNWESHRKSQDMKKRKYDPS

[28] = target: T6, COUP transcription factor 2 (Homo sapiens, UniProt P24468); assay: Luminescence-based cell-based high throughput dose response assay to identify inhibitors of COUP-TFII (NR2F2).; format: functional;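 further: HEK293 cells transiently cotransfected with COUP-TFII expression vector and reporter; luciferase reporter luminescence driven by COUP-TFII from the pX2-168 reporter plasmid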
T6 sequence (P24468 whole entry): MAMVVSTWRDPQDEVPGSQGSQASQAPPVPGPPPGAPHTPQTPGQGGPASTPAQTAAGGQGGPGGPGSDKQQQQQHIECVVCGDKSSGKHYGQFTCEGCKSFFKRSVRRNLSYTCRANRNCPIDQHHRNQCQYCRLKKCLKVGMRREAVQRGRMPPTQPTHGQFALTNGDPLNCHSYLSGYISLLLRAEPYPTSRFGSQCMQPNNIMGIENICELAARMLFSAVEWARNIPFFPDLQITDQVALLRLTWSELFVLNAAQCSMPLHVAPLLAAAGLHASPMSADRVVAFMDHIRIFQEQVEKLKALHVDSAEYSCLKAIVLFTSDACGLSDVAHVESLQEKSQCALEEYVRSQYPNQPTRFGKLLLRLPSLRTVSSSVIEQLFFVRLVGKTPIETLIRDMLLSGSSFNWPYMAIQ

With `O=C(O)c1cc(O)c2c(c1)C(=O)c1cccc(O)c1C2=O` [RHEIN] the EC50 [1] was 29.2 µM (active), the EC50 [2] was 21.6 µM (active) and the EC50 [3] was 19.8 µM (active). The EC50 [4] was 5.19 µM (active) and the AC50 [5] was > 30 µM (inactive).
For `Cc1ccc(OCc2nnc(SCC(=O)c3ccccc3)n2Cc2ccco2)cc1`, the EC50 [3] was > 20 µM (not active) and the EC50 [4] was > 20 µM (not active).
With `Cc1nnc(SCC(=O)NC2CCCC2)s1` the EC50 [6] was > 55.7 µM (not active) and the EC50 [7] was > 55.7 µM (not active).
In the case of `O=C(NCCCCc1ccccc1)c1cc([N+](=O)[O-])cc([N+](=O)[O-])c1`, the EC50 [8] is reported as < 0.1 µM (active), the EC50 [9] is reported as > 60 µM (not active) and the IC50 [10] is reported as 12.4 µM (active). For the same molecule, the IC50 [11] was 8 µM (active) and the EC50 [12] was 0.258 µM (active).
With `COc1ccccc1C(=O)C1CCCN(C(=O)CSc2ccccn2)C1` (stereo unspecified) the EC50 [13] was > 79.4 µM (not active), the EC50 [14] was > 79.4 µM (not active) and the EC50 [15] was > 79.4 µM (not active).
For `Cn1nc([N+](=O)[O-])nc1Sc1cccc2cccnc12`, the EC50 [8] was < 0.1 µM (active), the EC50 [9] was > 60 µM (not active) and the AC50 [16] was 2.59 µM (active). The EC50 [12] was 0.115 µM (active).
For `COc1ccc2c(COC(=O)c3[nH]nc4ccccc34)cc(=O)oc2c1`, the EC50 [17] was 0.752 µM (active), the EC50 [18] was < 0.1 µM (inconclusive) and the EC50 [19] was 0.409 µM (active). The EC50 [20] was 0.684 µM (active) and the EC50 [21] was 0.352 µM (active).
In the case of `CN(C)S(=O)(=O)c1cccc(NC(=O)COC(=O)c2cc(-c3cccc(Br)c3)nc3ccccc23)c1`, the EC50 [13] is reported as 18.1 µM (not active), the EC50 [14] is reported as 19.1 µM (not active) and the EC50 [15] is reported as 21.1 µM (not active). For the same molecule, the IC50 [22] was > 94.1 µM (inactive).
For `COc1ccc(C(=O)Cc2ccccc2)cc1OC`, the EC50 [6] was > 55.7 µM (not active) and the EC50 [7] was > 55.7 µM (not active).
With `COc1cccc(N(C(=O)c2nc3nccc(C)n3n2)c2nc3ccccc3s2)c1` the EC50 [17] was 0.248 µM (active), the EC50 [23] was 0.122 µM (active) and the EC50 [18] was 0.192 µM (active). The EC50 [19] was 0.166 µM (active), the EC50 [20] was 0.338 µM (active) and the EC50 [21] was 0.464 µM (active). For the same molecule, the AC50 [24] was 43.5 µM (active).
For `CC1=CC(=Cc2sc3ccccc3[n+]2C)C=C(C)O1.[O-][Cl+3]([O-])([O-])[O-]`, the EC50 [25] was > 160 µM (inactive), the EC50 [26] was 0.491 µM (active) and the EC50 [8] was < 0.1 µM (active). The EC50 [9] was 32.3 µM (active), the AC50 [27] was 5.78 µM (active) and the IC50 [28] was 8.76 µM (active). For the same molecule, the EC50 [12] was 0.009 µM (active).
